Results taken from US11661440B2 (priority 2015, dated 2023).
Ends that are not written are not given here.

Legend:
[1] = biological target: NR1a/NR2A (GluN1-a/GluN2A) recombinant NMDA receptor (Rattus norvegicus, UniProt Q00959); format: cell-based
[2] = tested on: NMDA receptor; format: cell-based, rat
[3] = biological target: NR1a/NR2B (GluN1-a/GluN2B) recombinant NMDA receptor (Rattus norvegicus, UniProt Q00960); format: cell-based
Chain of NR1a/NR2B (GluN1-a/GluN2B) recombinant NMDA receptor (Q00960 whole entry, looked up): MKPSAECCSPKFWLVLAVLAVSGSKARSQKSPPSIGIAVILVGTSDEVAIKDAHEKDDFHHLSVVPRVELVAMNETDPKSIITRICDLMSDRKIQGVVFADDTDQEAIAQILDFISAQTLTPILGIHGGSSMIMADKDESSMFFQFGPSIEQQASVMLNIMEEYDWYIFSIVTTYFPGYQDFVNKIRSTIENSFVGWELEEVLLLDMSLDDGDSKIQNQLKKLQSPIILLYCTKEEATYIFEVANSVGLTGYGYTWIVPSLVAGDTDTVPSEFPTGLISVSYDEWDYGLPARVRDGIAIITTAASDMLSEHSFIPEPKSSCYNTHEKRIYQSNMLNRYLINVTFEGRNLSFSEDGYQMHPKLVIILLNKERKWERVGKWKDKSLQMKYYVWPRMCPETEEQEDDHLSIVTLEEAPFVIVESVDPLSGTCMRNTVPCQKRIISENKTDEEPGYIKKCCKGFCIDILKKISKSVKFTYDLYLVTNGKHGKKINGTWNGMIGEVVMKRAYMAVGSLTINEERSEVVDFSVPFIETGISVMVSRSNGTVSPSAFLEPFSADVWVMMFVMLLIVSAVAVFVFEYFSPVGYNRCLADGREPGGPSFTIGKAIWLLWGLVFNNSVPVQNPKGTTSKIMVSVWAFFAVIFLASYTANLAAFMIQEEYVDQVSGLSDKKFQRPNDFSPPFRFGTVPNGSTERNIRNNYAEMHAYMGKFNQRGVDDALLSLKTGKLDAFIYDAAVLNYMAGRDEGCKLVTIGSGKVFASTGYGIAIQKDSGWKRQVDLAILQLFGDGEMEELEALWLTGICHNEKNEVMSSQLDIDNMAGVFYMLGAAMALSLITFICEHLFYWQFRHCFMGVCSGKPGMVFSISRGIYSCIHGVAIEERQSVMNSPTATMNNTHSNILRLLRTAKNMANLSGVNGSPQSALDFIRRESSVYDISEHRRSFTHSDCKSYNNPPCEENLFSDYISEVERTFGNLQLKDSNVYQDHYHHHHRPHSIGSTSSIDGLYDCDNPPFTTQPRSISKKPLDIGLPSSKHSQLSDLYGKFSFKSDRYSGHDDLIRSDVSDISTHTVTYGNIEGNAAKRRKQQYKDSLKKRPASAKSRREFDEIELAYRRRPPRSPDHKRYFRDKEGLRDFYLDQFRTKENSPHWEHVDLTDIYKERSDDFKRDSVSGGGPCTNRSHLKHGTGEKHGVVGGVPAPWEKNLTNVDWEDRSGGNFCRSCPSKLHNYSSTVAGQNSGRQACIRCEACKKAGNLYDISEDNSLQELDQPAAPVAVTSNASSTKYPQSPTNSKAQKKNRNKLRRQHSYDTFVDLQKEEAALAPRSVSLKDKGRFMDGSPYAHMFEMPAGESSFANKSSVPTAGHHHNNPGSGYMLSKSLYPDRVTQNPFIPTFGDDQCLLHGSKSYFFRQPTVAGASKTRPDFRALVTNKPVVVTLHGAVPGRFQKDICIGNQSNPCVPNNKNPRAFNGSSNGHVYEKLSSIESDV

Chain of NR1a/NR2A (GluN1-a/GluN2A) recombinant NMDA receptor (Q00959 whole entry, looked up): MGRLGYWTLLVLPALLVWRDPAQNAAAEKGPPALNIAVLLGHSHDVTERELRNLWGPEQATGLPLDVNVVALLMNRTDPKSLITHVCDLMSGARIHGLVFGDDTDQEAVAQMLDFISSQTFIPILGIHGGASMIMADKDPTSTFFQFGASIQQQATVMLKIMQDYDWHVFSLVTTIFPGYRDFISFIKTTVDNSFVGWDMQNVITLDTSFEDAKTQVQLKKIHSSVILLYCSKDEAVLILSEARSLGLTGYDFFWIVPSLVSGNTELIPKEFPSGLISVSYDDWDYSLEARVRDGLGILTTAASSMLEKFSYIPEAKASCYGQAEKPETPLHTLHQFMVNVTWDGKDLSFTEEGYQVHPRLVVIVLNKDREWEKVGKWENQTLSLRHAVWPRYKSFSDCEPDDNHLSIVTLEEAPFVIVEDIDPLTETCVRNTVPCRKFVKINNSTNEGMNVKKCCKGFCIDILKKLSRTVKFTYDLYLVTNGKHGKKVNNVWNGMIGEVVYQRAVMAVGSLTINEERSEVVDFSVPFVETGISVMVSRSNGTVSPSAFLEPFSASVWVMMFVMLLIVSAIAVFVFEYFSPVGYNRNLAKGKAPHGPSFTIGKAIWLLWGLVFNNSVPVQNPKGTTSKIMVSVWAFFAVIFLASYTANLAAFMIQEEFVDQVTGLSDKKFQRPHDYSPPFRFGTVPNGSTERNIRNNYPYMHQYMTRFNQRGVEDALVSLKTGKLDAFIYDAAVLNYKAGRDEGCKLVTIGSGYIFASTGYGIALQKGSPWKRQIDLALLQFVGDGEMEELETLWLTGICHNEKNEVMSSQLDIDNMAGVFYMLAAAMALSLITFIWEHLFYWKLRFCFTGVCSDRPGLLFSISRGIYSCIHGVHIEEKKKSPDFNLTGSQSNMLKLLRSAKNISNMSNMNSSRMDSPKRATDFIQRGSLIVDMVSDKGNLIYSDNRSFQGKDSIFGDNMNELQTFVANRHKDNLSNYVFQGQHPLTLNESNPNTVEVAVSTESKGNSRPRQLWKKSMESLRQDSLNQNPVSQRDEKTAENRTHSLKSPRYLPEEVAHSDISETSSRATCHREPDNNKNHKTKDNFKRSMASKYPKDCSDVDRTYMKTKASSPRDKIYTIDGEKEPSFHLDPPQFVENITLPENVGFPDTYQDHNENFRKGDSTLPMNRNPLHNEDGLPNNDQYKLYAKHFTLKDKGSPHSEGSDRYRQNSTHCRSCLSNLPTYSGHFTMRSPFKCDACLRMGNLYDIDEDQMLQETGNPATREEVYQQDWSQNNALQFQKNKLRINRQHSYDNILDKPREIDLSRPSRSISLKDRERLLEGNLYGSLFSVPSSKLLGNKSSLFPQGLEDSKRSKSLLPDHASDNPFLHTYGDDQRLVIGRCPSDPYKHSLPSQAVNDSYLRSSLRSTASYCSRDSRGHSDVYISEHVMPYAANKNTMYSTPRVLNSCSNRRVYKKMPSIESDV

## GEDDLQDNQDLIRDKSN [SEQ ID NO: 2]
[1]
  reduction of evoked current (in words): slight reduction in current
[2]
  inhibition in some registers: ~40%
[2]; read-out: IC50 for inhibition of NMDA receptor-evoked current (dose-response curve)
  IC50: 202 µM
[3]
  blocking of evoked current (in words): Almost total blocking of the current
  selectivity between GluN2B and GluN2A subunits (in words): selectivity for subunit GluN2B rather than GluN2A
